Source: article PMC6364417, “Kinase inhibitor library screening identifies synergistic drug combinations effective in sensitive and resistant melanoma cells” (Journal of Experimental & Clinical Cancer Research : CR, 2019)

Legend:
Test in all cases: Kinase inhibitor library screening, PrestoBlue cell viability, 1 or 10 μM, 72 h
[1] = test system: 501Mel-GP cells (Dabrafenib-resistant); conditions: 501Mel GP, 72 h
501Mel cells (parental) = conditions: 501Mel Parental, 72 h
In short: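 Values are % viability versus untreated wells, measured by PrestoBlue after a 72 h drug exposure. Screens covered the parental line plus sublines rendered resistant to Vemurafenib or Dabrafenib, each analysed in at least duplicate.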

[2] = test system: A375-GP cells (Dabrafenib-resistant); conditions: A375 GP, 72 h; for cell viability, A375 GP, 1μΜ / cell viability, A375 GP, 10μΜ: in %
[3] = test system: IGR37-GP cells (Dabrafenib-resistant); conditions: IGR37 GP, 72 h
[4] = test system: A375-XP cells (Vemurafenib-resistant); conditions: A375 XP, 72 h; for cell viability, A375 XP, 1μΜ / cell viability, A375 XP, 10μΜ: in %
[5] = test system: 501Mel-XP cells (Vemurafenib-resistant); conditions: 501Mel XP, 72 h
A375 cells (parental) = conditions: A375 Parental, 72 h; for cell viability, A375 Parental, 1μΜ / cell viability, A375 Parental, 10μΜ: in %
[6] = test system: IGR37-XP cells (Vemurafenib-resistant); conditions: IGR37 XP, 72 h
IGR37 cells (parental) = conditions: IGR37 Parental, 72 h

SMILES: Cn1cc(-c2ccc3ncc(Cc4ccc5ncccc5c4)n3n2)cn1 [NVP-BVU972]
- cell viability (kinase inhibitor library screening) ([1]; 1μΜ): 89.9%
- cell viability (kinase inhibitor library screening) ([1]; 10μΜ): 69.4%
- cell viability (kinase inhibitor library screening) (501Mel cells (parental); 1μΜ): 107.5%
- cell viability (kinase inhibitor library screening) (501Mel cells (parental); 10μΜ): 89.2%
- cell viability (kinase inhibitor library screening) ([2]; 1μΜ): 106.0%
- cell viability (kinase inhibitor library screening) ([2]; 10μΜ): 100.5%
- cell viability (kinase inhibitor library screening) ([3]; 1μΜ): 108.8%
- cell viability (kinase inhibitor library screening) ([3]; 10μΜ): 87.7%
- cell viability (kinase inhibitor library screening) ([4]; 1μΜ): 109.6%
- cell viability (kinase inhibitor library screening) ([4]; 10μΜ): 105.5%
- cell viability (kinase inhibitor library screening) ([5]; 1μΜ): 74.0%
- cell viability (kinase inhibitor library screening) ([5]; 10μΜ): 62.7%
- cell viability (kinase inhibitor library screening) (A375 cells (parental); 10μΜ): 100.0%
- cell viability (kinase inhibitor library screening) (A375 cells (parental); 1μΜ): 108.4%
- cell viability (kinase inhibitor library screening) ([6]; 1μΜ): 110.4%
- cell viability (kinase inhibitor library screening) ([6]; 10μΜ): 86.2%
- cell viability (kinase inhibitor library screening) (IGR37 cells (parental); 1μΜ): 104.5%
- cell viability (kinase inhibitor library screening) (IGR37 cells (parental); 10μΜ): 96.9%

SMILES: CNC(=O)c1ccccc1Nc1nc(Nc2ccc(N3CCOCC3)cc2OC)ncc1Cl [NVP-TAE226]
- cell viability, 501Mel GP, 1μΜ ([1]; 1μΜ, in %): 72.0
- cell viability, 501Mel GP, 10μΜ ([1]; 10μΜ, in %): 34.3
- cell viability, 501Mel Parental, 1μΜ (501Mel cells (parental); 1μΜ, in %): 69.2
- cell viability, 501Mel Parental, 10μΜ (501Mel cells (parental); 10μΜ, in %): 38.3
- cell viability, A375 GP, 1μΜ ([2]; 1μΜ): 41.6
- cell viability, A375 GP, 10μΜ ([2]; 10μΜ): 16.3
- cell viability, IGR37 GP, 10μΜ ([3]; 10μΜ): 3.7%
- cell viability, IGR37 GP, 1μΜ ([3]; 1μΜ, in %): 59.0
- cell viability, A375 XP, 1μΜ ([4]; 1μΜ): 52.4
- cell viability, A375 XP, 10μΜ ([4]; 10μΜ): 21.6
- cell viability, 501Mel XP, 1μΜ ([5]; 1μΜ, in %): 67.5
- cell viability, 501Mel XP, 10μΜ ([5]; 10μΜ, in %): 20.7
- cell viability, A375 Parental, 1μΜ (A375 cells (parental); 1μΜ): 51.1
- cell viability, A375 Parental, 10μΜ (A375 cells (parental); 10μΜ): 12.7
- cell viability, IGR37 XP, 10μΜ ([6]; 10μΜ): 1.5%
- cell viability, IGR37 XP, 1μΜ ([6]; 1μΜ, in %): 34.8
- cell viability, IGR37 Parental, 1μΜ (IGR37 cells (parental); 1μΜ, in %): 82.8
- cell viability, IGR37 Parental, 10μΜ (IGR37 cells (parental); 10μΜ, in %): 36.2

SMILES: CCOc1cc2ncc(C#N)c(Nc3ccc(OCc4ccccn4)c(Cl)c3)c2cc1NC(=O)/C=C/CN(C)C [Neratinib (HKI-272)]
- cell viability, 501Mel GP, 1μΜ ([1]; 1μΜ, in %): 103.4
- cell viability, 501Mel GP, 10μΜ ([1]; 10μΜ, in %): 64.1
- cell viability, 501Mel Parental, 1μΜ (501Mel cells (parental); 1μΜ, in %): 96.7
- cell viability, 501Mel Parental, 10μΜ (501Mel cells (parental); 10μΜ, in %): 54.8
- cell viability, A375 GP, 1μΜ ([2]; 1μΜ): 93.4
- cell viability, A375 GP, 10μΜ ([2]; 10μΜ): 4.2
- cell viability, IGR37 GP, 10μΜ ([3]; 10μΜ): 21.6%
- cell viability, IGR37 GP, 1μΜ ([3]; 1μΜ, in %): 81.2
- cell viability, A375 XP, 1μΜ ([4]; 1μΜ): 89.5
- cell viability, A375 XP, 10μΜ ([4]; 10μΜ): 10.7
- cell viability, 501Mel XP, 1μΜ ([5]; 1μΜ, in %): 85.2
- cell viability, 501Mel XP, 10μΜ ([5]; 10μΜ, in %): 0.0171
- cell viability, A375 Parental, 1μΜ (A375 cells (parental); 1μΜ): 97.5
- cell viability, A375 Parental, 10μΜ (A375 cells (parental); 10μΜ): 29.0
- cell viability, IGR37 XP, 10μΜ ([6]; 10μΜ): 9.6%
- cell viability, IGR37 XP, 1μΜ ([6]; 1μΜ, in %): 75.0
- cell viability, IGR37 Parental, 1μΜ (IGR37 cells (parental); 1μΜ, in %): 96.7
- cell viability, IGR37 Parental, 10μΜ (IGR37 cells (parental); 10μΜ, in %): 66.7

SMILES: Cc1cn(-c2cc(NC(=O)c3ccc(C)c(Nc4nccc(-c5cccnc5)n4)c3)cc(C(F)(F)F)c2)cn1 [Nilotinib (AMN-107)]
- cell viability (kinase inhibitor library screening) ([1]; 1μΜ): 99.9%
- cell viability (kinase inhibitor library screening) ([1]; 10μΜ): 74.5%
- cell viability (kinase inhibitor library screening) (501Mel cells (parental); 1μΜ): 89.8%
- cell viability (kinase inhibitor library screening) (501Mel cells (parental); 10μΜ): 71.1%
- cell viability (kinase inhibitor library screening) ([2]; 1μΜ): 96.3%
- cell viability (kinase inhibitor library screening) ([2]; 10μΜ): 48.3%
- cell viability (kinase inhibitor library screening) ([3]; 1μΜ): 98.8%
- cell viability (kinase inhibitor library screening) ([3]; 10μΜ): 35.4%
- cell viability (kinase inhibitor library screening) ([4]; 1μΜ): 87.0%
- cell viability (kinase inhibitor library screening) ([4]; 10μΜ): 57.9%
- cell viability (kinase inhibitor library screening) ([5]; 1μΜ): 84.0%
- cell viability (kinase inhibitor library screening) ([5]; 10μΜ): 54.3%
- cell viability (kinase inhibitor library screening) (A375 cells (parental); 10μΜ): 66.2%
- cell viability (kinase inhibitor library screening) (A375 cells (parental); 1μΜ): 102.9%
- cell viability (kinase inhibitor library screening) ([6]; 1μΜ): 100.2%
- cell viability (kinase inhibitor library screening) ([6]; 10μΜ): 1.4%
- cell viability (kinase inhibitor library screening) (IGR37 cells (parental); 1μΜ): 95.3%
- cell viability (kinase inhibitor library screening) (IGR37 cells (parental); 10μΜ): 73.7%

SMILES: COc1cccc2cc(-c3nc([C@H]4CC[C@H](C(=O)O)CC4)n4ncnc(N)c34)[nH]c12 [OSI-027]
- Cell viability in kinase inhibitor library screening, 501Mel GP, 1μΜ ([1]; 1μΜ, in %): 59.2
- Cell viability in kinase inhibitor library screening, 501Mel GP, 10μΜ ([1]; 10μΜ, in %): 13.9
- Cell viability in kinase inhibitor library screening, 501Mel Parental, 1μΜ (501Mel cells (parental); 1μΜ, in %): 74.7
- Cell viability in kinase inhibitor library screening, 501Mel Parental, 10μΜ (501Mel cells (parental); 10μΜ, in %): 14.4
- Cell viability in kinase inhibitor library screening, A375 GP, 1μΜ ([2]; 1μΜ): 62.5
- Cell viability in kinase inhibitor library screening, A375 GP, 10μΜ ([2]; 10μΜ): 21.4
- Cell viability in kinase inhibitor library screening, IGR37 GP, 10μΜ ([3]; 10μΜ): 40%
- Cell viability in kinase inhibitor library screening, IGR37 GP, 1μΜ ([3]; 1μΜ, in %): 81.3
- Cell viability in kinase inhibitor library screening, A375 XP, 1μΜ ([4]; 1μΜ): 55.5
- Cell viability in kinase inhibitor library screening, A375 XP, 10μΜ ([4]; 10μΜ): 19.1
- Cell viability in kinase inhibitor library screening, 501Mel XP, 1μΜ ([5]; 1μΜ, in %): 55.5
- Cell viability in kinase inhibitor library screening, 501Mel XP, 10μΜ ([5]; 10μΜ, in %): 6.8
- Cell viability in kinase inhibitor library screening, A375 Parental, 10μΜ (A375 cells (parental); 10μΜ): 24.3
- Cell viability in kinase inhibitor library screening, A375 Parental, 1μΜ (A375 cells (parental); 1μΜ): 72.3
- Cell viability in kinase inhibitor library screening, IGR37 XP, 1μΜ ([6]; 1μΜ, in %): 72.2
- Cell viability in kinase inhibitor library screening, IGR37 Parental, 1μΜ (IGR37 cells (parental); 1μΜ, in %): 84.3
- Cell viability in kinase inhibitor library screening, IGR37 Parental, 10μΜ (IGR37 cells (parental); 10μΜ, in %): 46.6

SMILES: C#Cc1cccc(Nc2ncnc3cc(OCCOC)c(OCCO)cc23)c1 [OSI-420 (Desmethyl Erlotinib)]
- cell viability, 501Mel GP, 1μΜ ([1]; 1μΜ, in %): 106.0
- cell viability, 501Mel GP, 10μΜ ([1]; 10μΜ, in %): 79.2
- cell viability, 501Mel Parental, 1μΜ (501Mel cells (parental); 1μΜ, in %): 109.3
- cell viability, 501Mel Parental, 10μΜ (501Mel cells (parental); 10μΜ, in %): 100.2
- cell viability, A375 GP, 1μΜ ([2]; 1μΜ): 96.7
- cell viability, A375 GP, 10μΜ ([2]; 10μΜ): 88.2
- cell viability, IGR37 GP, 10μΜ ([3]; 10μΜ): 81.4%
- cell viability, IGR37 GP, 1μΜ ([3]; 1μΜ, in %): 91.6
- cell viability, A375 XP, 10μΜ ([4]; 10μΜ): 79.2
- cell viability, 501Mel XP, 1μΜ ([5]; 1μΜ, in %): 117.2
- cell viability, 501Mel XP, 10μΜ ([5]; 10μΜ, in %): 44.4
- cell viability, A375 Parental, 10μΜ (A375 cells (parental); 10μΜ): 54.9
- cell viability, IGR37 XP, 10μΜ ([6]; 10μΜ): 45.3%
- cell viability, IGR37 XP, 1μΜ ([6]; 1μΜ, in %): 83.7
- cell viability, IGR37 Parental, 1μΜ (IGR37 cells (parental); 1μΜ, in %): 108.5
- cell viability, IGR37 Parental, 10μΜ (IGR37 cells (parental); 10μΜ, in %): 104.1

SMILES: O=C(Nc1ccc(OC(F)(F)F)cc1)c1sccc1NCc1ccnc2ccccc12 [OSI-930]
- cell viability (kinase inhibitor library screening) ([1]; 1μΜ): 96.5%
- cell viability (kinase inhibitor library screening) ([1]; 10μΜ): 73.5%
- cell viability (kinase inhibitor library screening) (501Mel cells (parental); 1μΜ): 100.2%
- cell viability (kinase inhibitor library screening) (501Mel cells (parental); 10μΜ): 85.8%
- cell viability (kinase inhibitor library screening) ([2]; 1μΜ): 86.8%
- cell viability (kinase inhibitor library screening) ([2]; 10μΜ): 55.3%
- cell viability (kinase inhibitor library screening) ([3]; 1μΜ): 88.5%
- cell viability (kinase inhibitor library screening) ([3]; 10μΜ): 90.3%
- cell viability (kinase inhibitor library screening) ([4]; 1μΜ): 93.4%
- cell viability (kinase inhibitor library screening) ([4]; 10μΜ): 71.6%
- cell viability (kinase inhibitor library screening) ([5]; 1μΜ): 92.9%
- cell viability (kinase inhibitor library screening) ([5]; 10μΜ): 73.6%
- cell viability (kinase inhibitor library screening) (A375 cells (parental); 10μΜ): 77.6%
- cell viability (kinase inhibitor library screening) (A375 cells (parental); 1μΜ): 97.9%
- cell viability (kinase inhibitor library screening) ([6]; 1μΜ): 100.2%
- cell viability (kinase inhibitor library screening) ([6]; 10μΜ): 70.0%
- cell viability (kinase inhibitor library screening) (IGR37 cells (parental); 1μΜ): 96.0%
- cell viability (kinase inhibitor library screening) (IGR37 cells (parental); 10μΜ): 89.7%
